Here are results for two compounds from publication PMC5707507 (2015).

The structures appear in SMILES notation.

Test [1] relates to ssDNA (DNA, single strand) CCAGTTCGTAGTAACCC
As to the kind of experiment: luminescence response. As to conditions: none stated in assay buffer; 10 mM Tris-HCl, pH 7.2; 1.5 µM complex; 5 µM DNA highest tested.

Test [2] concerns c-myc (DNA, G4) TGAGGGTGGGTAGGGTGGGTAA
As to the kind of experiment: G4-FID, thiazole orange displacement. As to conditions: 100 mM KCl; 10 mM Tris-HCl, pH 7.2; 0.25 µM DNA; 0.50 µM thiazole orange displaced.

Test [3] relates to F10T (DNA, hairpin, hexaethylene glycol (HEG) linker between 8 and 9) TATAGCTATATAGCTATAT
As to the kind of experiment: FRET melting. Particulars: 10 mM Li+; lithium cacodylate, pH 7.4; 5 µM compound; 0.2 µM DNA.

In test [4] the test system is F21T (DNA, G4) GGGTTAGGGTTAGGGTTAGGG
The experiment in a line: FRET melting. As to conditions: 100 mM K+; potassium cacodylate, pH 7.0; 5 µM compound; 0.2 µM DNA.

For test [5], the system named is ds26 (DNA, duplex) CAATCGGATCGAATTCGATCCGATTG
As to the kind of experiment: G4-FID, thiazole orange displacement. As to conditions: 100 mM KCl; 10 mM Tris-HCl, pH 7.2; 0.75 µM thiazole orange; <15% displaced at highest concentration 1.25 µM.

Test [6] relates to c-myc (DNA, G4) TGAGGGTGGGTAGGGTGGGTAA
As to the kind of experiment: luminescence response. As to conditions: 20 mM KCl (annealing); 10 mM Tris-HCl, pH 7.2; 1.5 µM complex; 5 µM DNA; intensity ratio 7.5 over ds26, 5.5 over ssDNA.

`Cc1ccc(-c2ccc(C)cn2)nc1.[Ir+3].[c-]1ccccc1-c1nc2ccccc2[nH]1.[c-]1ccccc1-c1nc2ccccc2[nH]1`: in test [1], the binding result is listed as “no”. In test [2], this compound displayed a G4DC50 of 0.85 µM. For the same compound, the ΔTm in test [3] was 2 °C; in test [4], ~ 6.0 °C. The DC50 in test [5] was more than 1250 nM.

For the compound `Cc1ccc(-c2ccc(C)cn2)nc1.[Ir+3].[c-]1ccccc1-c1nc2ccccc2s1.[c-]1ccccc1-c1nc2ccccc2s1`, the binding result in test [6] is “yes”.
